Columns and labels:
A549 [1] = assay: Antiproliferative activity against human A549 cells assessed as cell growth inhibition; type: functional, cell-based
PANC-1 = assay: Antiproliferative activity against human PANC-1 cells assessed as cell growth inhibition incubated for 72 hrs by SRB assay; type: functional, cell-based; settings: PANC-1, 72 h
[2] = Selectivity index, ratio of IC50 for antiproliferative activity against human L02 cells to IC50 for antiproliferative activity against human BXPC-3 cells; type: toxicity, cell-based; settings: L02 cells versus BXPC-3 cells, read-out: Ratio IC50
A549 [3] = assay: Antiproliferative activity against human A549 cells assessed as cell growth inhibition incubated for 72 hrs by SRB assay; type: functional, cell-based; settings: A549, 72 h
[4] = molecular target: Insulin-like growth factor 2 mRNA-binding protein 1 (Homo sapiens, UniProt Q9NZI8); assay: Binding affinity to His-tagged recombinant IGF2BP1 (unknown origin) assessed as dissociation constant by surface plasmon resonance assay
[5] = Acute toxicity in C57BL/6J mouse assessed as death at 0.75 mg/kg,ip measured after 14 days; type: organism-based; settings: in vivo, 336 h, time 14 day
HepG2 [6] = assay: Antiproliferative activity against human HepG2 cells assessed as cell growth inhibition incubated for 72 hrs by SRB assay; type: functional, cell-based; settings: HepG2, 72 h
[7] = Selectivity index, ratio of IC50 for antiproliferative activity against human L02 cells to IC50 for antiproliferative activity against human SK-OV-3 cells
HeLa = assay: Antiproliferative activity against human HeLa cells assessed as cell growth inhibition incubated for 72 hrs by SRB assay; type: functional, cell-based
[8] = Antiproliferative activity against human L02 cells assessed as cell growth inhibition at 1 uM incubated for 72 hrs by SRB assay; type: toxicity, cell-based
BXPC-3 = assay: Antiproliferative activity against human BXPC-3 cells assessed as cell growth inhibition incubated for 72 hrs by SRB assay; type: functional, cell-based; settings: BXPC-3, 72 h
CFPAC-1 = assay: Antiproliferative activity against human CFPAC-1 cells assessed as cell growth inhibition incubated for 72 hrs by SRB assay; type: functional, cell-based; settings: CFPAC-1, 72 h
A549 [9] = assay: Induction of apoptosis in human A549 cells at 0.5 uM incubated for 48 hrs by Annexin V-FITC/PI staining based flow cytometric analysis; type: functional
A549 [10] = assay: Antitumor activity against human A549 cells xenografted in BALB/c mouse assessed as tumor growth inhibition at 0.5 mg/kg,ip administrated for 21 days; type: functional; settings: A549, 504 h, time 21 day, read-out: TGI
A549 [11] = assay: Induction of cell cycle arrest in human A549 cells assessed as accumulation of cells at G1 phase at 0.5 uM incubated for 24 hrs by PI staining based flow cytometric analysis (reference value: 65.6 %); type: functional
[12] = Selectivity index, ratio of IC50 for antiproliferative activity against human L02 cells to IC50 for antiproliferative activity against human CFPAC-1 cells
HCT-116 [13] = assay: Antiproliferative activity against human HCT-116 cells assessed as cell growth inhibition at 0.1 uM incubated for 72 hrs by SRB assay; type: functional
SK-OV-3 = assay: Antiproliferative activity against human SK-OV-3 cells assessed as cell growth inhibition incubated for 72 hrs by SRB assay; type: functional, cell-based; settings: SK-OV-3, 72 h
[14] = Selectivity index, ratio of IC50 for antiproliferative activity against human L02 cells to IC50 for antiproliferative activity against human MDA-MB-231 cells; type: toxicity, cell-based; settings: L02 cells versus MDA-MB-231 cells, read-out: Ratio IC50
MCF7 = assay: Antiproliferative activity against human MCF7 cells assessed as cell growth inhibition incubated for 72 hrs by SRB assay; type: functional, cell-based; settings: MCF7, 72 h
[15] = Selectivity index, ratio of IC50 for antiproliferative activity against human L02 cells to IC50 for antiproliferative activity against human HepG2 cells; type: toxicity, cell-based; settings: L02 cells versus HepG2 cells, read-out: Ratio IC50
HCT-116 [16] = assay: Antiproliferative activity against human HCT-116 cells assessed as cell growth inhibition incubated for 72 hrs by SRB assay; type: functional, cell-based; settings: HCT-116, 72 h
[17] = Antiproliferative activity against human L02 cells assessed as cell growth inhibition at 0.1 uM incubated for 72 hrs by SRB assay; type: toxicity, cell-based
[18] = Selectivity index, ratio of IC50 for antiproliferative activity against human L02 cells to IC50 for antiproliferative activity against human A549 cells; type: toxicity, cell-based; settings: L02 cells versus A549 cells, read-out: Ratio IC50
MDA-MB-231 = assay: Antiproliferative activity against human MDA-MB-231 cells assessed as cell growth inhibition incubated for 72 hrs by SRB assay; type: functional, cell-based; settings: MDA-MB-231, 72 h
[19] = Selectivity index, ratio of IC50 for antiproliferative activity against human L02 cells to IC50 for antiproliferative activity against human HeLa cells; type: toxicity, cell-based; settings: L02 cells versus HeLa cells, read-out: Ratio IC50
[20] = Selectivity index, ratio of IC50 for antiproliferative activity against human L02 cells to IC50 for antiproliferative activity against human HCT-116 cells; type: toxicity, cell-based; settings: L02 cells versus HCT-116 cells, read-out: Ratio IC50
[21] = Selectivity index, ratio of IC50 for antiproliferative activity against human L02 cells to IC50 for antiproliferative activity against human PANC-1 cells
A549 [22] = assay: Induction of cell cycle arrest in human A549 cells assessed as accumulation of cells at S phase at 0.5 uM incubated for 24 hrs by PI staining based flow cytometric analysis (reference value: 23 %); type: functional
A549 [23] = assay: Induction of cell cycle arrest in human A549 cells assessed as accumulation of cells at G2 phase at 0.5 uM incubated for 24 hrs by PI staining based flow cytometric analysis (reference value: 9.26 %); type: functional
[24] = Selectivity index, ratio of IC50 for antiproliferative activity against human L02 cells to IC50 for antiproliferative activity against human MCF7 cells; type: toxicity, cell-based; settings: L02 cells versus MCF7 cells, read-out: Ratio IC50
HCT-116 [25] = assay: Antiproliferative activity against human HCT-116 cells assessed as cell growth inhibition at 1 uM incubated for 72 hrs by SRB assay; type: functional
[26] = Antiproliferative activity against human L02 cells assessed as cell growth inhibition incubated for 72 hrs by SRB assay; type: toxicity, cell-based
HepG2 [27] = assay: Antiproliferative activity against human HepG2 cells assessed as cell growth inhibition incubated for 72 hrs by MTT assay; type: functional, cell-based; settings: HepG2, 72 h
[28] = Antiproliferative activity against human L02 cells assessed as cell growth inhibition incubated for 72 hrs by MTT assay; type: toxicity, cell-based

Sequence of Insulin-like growth factor 2 mRNA-binding protein 1 (Q9NZI8 whole entry): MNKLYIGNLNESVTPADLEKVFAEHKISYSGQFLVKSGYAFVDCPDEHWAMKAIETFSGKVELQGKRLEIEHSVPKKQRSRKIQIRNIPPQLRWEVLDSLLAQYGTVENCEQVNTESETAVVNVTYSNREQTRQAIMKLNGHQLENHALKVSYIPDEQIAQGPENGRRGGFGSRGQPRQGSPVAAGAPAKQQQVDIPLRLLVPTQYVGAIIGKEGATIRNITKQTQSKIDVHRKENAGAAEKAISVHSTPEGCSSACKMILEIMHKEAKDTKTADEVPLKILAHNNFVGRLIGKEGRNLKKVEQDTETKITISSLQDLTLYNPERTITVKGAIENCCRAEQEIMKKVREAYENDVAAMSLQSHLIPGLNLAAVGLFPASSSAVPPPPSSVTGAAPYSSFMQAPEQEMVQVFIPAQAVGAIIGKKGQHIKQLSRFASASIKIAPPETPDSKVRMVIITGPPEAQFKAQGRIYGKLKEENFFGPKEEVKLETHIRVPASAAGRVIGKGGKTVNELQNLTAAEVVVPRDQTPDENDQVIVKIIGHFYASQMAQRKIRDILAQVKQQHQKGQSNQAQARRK

Compound `CC(=O)OC(C)(C)/C=C/C(=O)[C@](C)(O)[C@H]1[C@H](O)C[C@@]2(C)[C@@H]3CC=C4[C@@H](C[C@H](N)C(=O)C4(C)C)[C@]3(C)C(=O)C[C@]12C` has an IC50 (A549 [1]) of 120 nM.

Compound `CC(=O)OC(C)(C)/C=C/C(=O)[C@](C)(O)[C@H]1[C@H](O)C[C@@]2(C)[C@@H]3CC=C4[C@@H](C[C@H](O)C(=O)C4(C)C)[C@]3(C)C(=O)C[C@]12C` has an IC50 (PANC-1) of 67 nM, a selectivity ratio [2] of 0.5 and an IC50 (A549 [3]) of 88 nM. For the same compound, the Kd [4] was 66.2 nM, the Activity [5] was “Non-Toxic” and the IC50 (HepG2 [6]) was 51 nM. For the same compound, the “Ratio IC50” value [7] was 0.23, the IC50 (HeLa) was 24 nM and the inhibition at 72 h, 1 µM [8] was 70.7%. The IC50 (BXPC-3) was 22 nM, the IC50 (CFPAC-1) was 23 nM and the Activity (A549 [9]) was 29.1%. The inhibition in vivo at 0.5 mg/kg (A549 [10]) was 53%, the Activity (A549 [11]) was 51.1% and the “Ratio IC50” value [12] was 0.49. For the same compound, the inhibition at 0.1 µM (HCT-116 [13]) was 69%, the IC50 (SK-OV-3) was 47 nM and the selectivity ratio [14] was 0.3. It also gave an IC50 (MCF7) of 40 nM, a selectivity ratio [15] of 0.22 and an IC50 (HCT-116 [16]) of 19 nM. It also gave an inhibition at 72 h, 0.1 µM [17] of 70.6%, a selectivity ratio [18] of 0.13 and an IC50 (MDA-MB-231) of 37 nM. The selectivity ratio [19] was 0.46, the selectivity ratio [20] was 0.57 and the “Ratio IC50” value [21] was 0.16. It also gave an Activity (A549 [22]) of 10.2%, an Activity (A549 [23]) of 37.2% and a selectivity ratio [24] of 0.23. For the same compound, the inhibition at 1 µM (HCT-116 [25]) was 82.7% and the IC50 at 72 h [26] was 11 nM.

In the case of `CC1(C)C(=O)[C@@H](O)C[C@@H]2C1=CC[C@@H]1[C@@]2(C)C(=O)C[C@]2(C)[C@@H]([C@@](C)(O)C(=O)/C=C/C(C)(C)c3cccc(C#N)c3)[C@H](O)C[C@@]12C`, the IC50 (A549 [1]) is reported as 6.8 nM.

Compound `CC(=O)OC(C)(C)/C=C/C(=O)[C@](C)(O)[C@H]1[C@H](O)C[C@@]2(C)[C@@H]3CC=C4[C@@H](C[C@H](OC(=O)Cn5ncn(-c6ccc(Br)cc6)c5=O)C(=O)C4(C)C)[C@]3(C)C(=O)C[C@]12C` has an inhibition at 72 h, 1 µM [8] of 67.5%, an inhibition at 0.1 µM (HCT-116 [13]) of 70.8% and an IC50 (HCT-116 [16]) of 76 nM. For the same compound, the inhibition at 72 h, 0.1 µM [17] was 54.1%, the selectivity ratio [20] was 0.41 and the inhibition at 1 µM (HCT-116 [25]) was 84.2%. The IC50 at 72 h [26] was 31 nM.

For `CC(=O)OC(C)(C)/C=C/C(=O)[C@](C)(O)[C@H]1[C@H](O)C[C@@]2(C)[C@@H]3CC=C4[C@@H](C[C@H](OC(=O)c5ccccn5)C(=O)C4(C)C)[C@]3(C)C(=O)C[C@]12C`, the inhibition at 72 h, 1 µM [8] was 71.2%, the inhibition at 0.1 µM (HCT-116 [13]) was 67.9% and the IC50 (HCT-116 [16]) was 79 nM. The inhibition at 72 h, 0.1 µM [17] was 44.8%, the selectivity ratio [20] was 0.43 and the inhibition at 1 µM (HCT-116 [25]) was 83.1%. It also gave an IC50 at 72 h [26] of 34 nM.

`CC(=O)OC(C)(C)/C=C/C(=O)[C@](C)(O)[C@H]1[C@H](OCCCC(=O)OCCCOc2no[n+]([O-])c2S(=O)(=O)c2ccccc2)C[C@@]2(C)[C@@H]3CC=C4[C@@H](C[C@H](O)C(=O)C4(C)C)[C@]3(C)C(=O)C[C@]12C` showed an IC50 (HepG2 [27]) of 630 nM and an IC50 at 72 h [28] of 2970 nM.

Reference: ChEMBL document CHEMBL5365466, “Discovery of Triazolyl Derivatives of Cucurbitacin B Targeting IGF2BP1 against Non-Small Cell Lung Cancer” (J Med Chem, 2023)
